We go through 16 compounds from patent US9840513B2 (AbbVie S.à.r.l., priority 2015, dated 2017).

The target in the assay is T1, F508delCFTR cell surface expression in CFBE41o-F508delCFTR-HRP cells (Homo sapiens, UniProt P13569, DEL508-508).
T1 construct: fused on or other part: Horseradish peroxidase (HRP) reporter inserted in the fourth exofacial (extracellular) loop of CFTR; expression is doxycycline-inducible
Nature of the assay: Cell Surface Expression-Horse Radish Peroxidase (CSE-HRP) Assay. The following applies: for EC50: CFBE41o-F508delCFTR-HRP cells, 18-24 hours at 33° C., 8-point curve, highest concentration 20 μM; for Maximum % activity (%): maximum at any tested concentration, normalized to on-plate positive control (3 μM). The class given is cell-based. An excerpt: Cell Surface Expression-Horse Radish Peroxidase (CSE-HRP) Assay:
A cellular assay for measuring the F508delCFTR cell surface expression after correction with test compounds was developed in human lung derived epithelial cell line (CFBE41o-) (Veit G et al, (2012) Mol Biol Cell. 23(21): 4188-4202). This was achieved by expressing the F508delCFTR mutation along with a horseradish peroxidase (HRP) in the fourth exofacial loop and then measuring the HRP activity using luminescence readout from these cells, CFBE41o-F508delCFTR-HRP, that were incubated overnight with the test corrector compounds. Briefly, for this primary assay, the CFBE41o-F508delCFTR-HRP cells were plated in 384-well plates (Greiner Bio-one; Cat 781080) at 4,000 cells/well along with 0.5 μg/mL doxycycline to induce the F508delCFTR-HRP expression and further incubated at 37° C., 5% CO2 for 72 hours. The test compounds were then added at the required concentrations and further incubated for 18-24 hours at 33° C. The highest concentration tested was 20 μM with an 8-point concentration response curve using a 3-fold dilution. Three replicate plates were run to determine one EC50. All plates contained negative controls (dimethyl sulfoxide, DMSO) and positive controls (3 μM of 3-[(2R,4R)-4-({[1-(2,2-difluoro-1,3-benzodioxol-5-yl)cyclopropyl]carbonyl}amino)-7-methoxy-3,4-dihydro-2H-chromen-2-yl]benzoic acid) as well as on-plate concentration response of the positive control. Post incubation, the plates were washed 5× times with Dulbecco's phosphate buffered saline (DPBS), followed by the addition of the HRP substrate, luminol (50 μL), and measuring the HRP activity using luminescence readout on EnVision® Multilabel Plate Reader (Perkin Elmer; product number 2104-0010). The raw counts from the experiment are analyzed using Accelrys® Assay Explorer v3.3.
Z′ greater than 0.5 was used as passing quality control criteria for the plates.
The Z′ is defined as: 1−[3*SDPositive Control+3*SDNegative Control/Absolute(MeanPositive Control−MeanNegative Control)] wherein “SD” is standard deviation.
The % activity measured at each of the 8 test concentrations of the test compound was normalized to the on-plate positive control using the following formula: % activity=[(test compound response DMSO response)/(positive control response DMSO response)]*100
The maximum % activity achieved for the test compound at any tested concentration is presented in Table 1 along with the EC50 calculated using the following general sigmoidal curve with variable Hill slope equation (described as Model 42 in the Accelrys® Assay Explorer v3.3 software): y=(a−d)/(1+(x/c)^b)+d
General sigmoidal curve with concentration, response, top, bottom, EC50 and Hill slope.
This model describes a sigmoidal curve with an adjustable baseline, a. The equation can be used to fit curves where response is either increasing or decreasing with respect to the independent variable, “x”.
“x” is a concentration of drug under test.
“a” is the maximum response, and “d” is the minimum response
“c” is the inflection point (EC50) for the curve. That is, “y” is halfway between the lower and upper asymptotes when x=c.
“b” is the slope-factor or Hill coefficient. The sign of b is positive when the response increases with increasing dose and is negative when the response decreases with increasing dose (inhibition).

T1 sequence (P13569 with tags, fused parts or gaps DEL508-508 limits assumed): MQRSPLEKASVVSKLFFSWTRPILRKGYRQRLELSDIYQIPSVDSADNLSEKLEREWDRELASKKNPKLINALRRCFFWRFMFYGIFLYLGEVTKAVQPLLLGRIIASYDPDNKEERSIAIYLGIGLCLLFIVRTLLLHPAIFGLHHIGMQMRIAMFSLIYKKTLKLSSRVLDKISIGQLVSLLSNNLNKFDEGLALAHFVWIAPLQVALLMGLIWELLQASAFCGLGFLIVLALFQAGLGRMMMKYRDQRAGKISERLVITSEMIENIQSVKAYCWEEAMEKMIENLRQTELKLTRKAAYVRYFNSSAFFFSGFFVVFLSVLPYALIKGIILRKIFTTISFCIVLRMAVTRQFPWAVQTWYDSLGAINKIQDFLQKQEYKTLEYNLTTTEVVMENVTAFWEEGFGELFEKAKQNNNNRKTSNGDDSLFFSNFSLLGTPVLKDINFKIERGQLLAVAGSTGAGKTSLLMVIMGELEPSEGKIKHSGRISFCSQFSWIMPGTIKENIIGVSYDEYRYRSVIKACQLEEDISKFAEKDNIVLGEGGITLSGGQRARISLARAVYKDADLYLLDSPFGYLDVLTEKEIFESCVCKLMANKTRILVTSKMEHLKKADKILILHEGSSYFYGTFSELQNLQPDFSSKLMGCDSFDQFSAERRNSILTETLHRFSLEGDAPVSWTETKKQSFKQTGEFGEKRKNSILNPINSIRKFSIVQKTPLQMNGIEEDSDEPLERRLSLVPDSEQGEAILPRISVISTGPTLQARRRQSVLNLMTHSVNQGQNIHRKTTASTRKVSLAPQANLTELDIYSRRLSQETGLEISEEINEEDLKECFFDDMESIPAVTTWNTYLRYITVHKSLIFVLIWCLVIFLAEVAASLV
T1 sequence (P13569 919-1480 limits assumed, stated change not applied): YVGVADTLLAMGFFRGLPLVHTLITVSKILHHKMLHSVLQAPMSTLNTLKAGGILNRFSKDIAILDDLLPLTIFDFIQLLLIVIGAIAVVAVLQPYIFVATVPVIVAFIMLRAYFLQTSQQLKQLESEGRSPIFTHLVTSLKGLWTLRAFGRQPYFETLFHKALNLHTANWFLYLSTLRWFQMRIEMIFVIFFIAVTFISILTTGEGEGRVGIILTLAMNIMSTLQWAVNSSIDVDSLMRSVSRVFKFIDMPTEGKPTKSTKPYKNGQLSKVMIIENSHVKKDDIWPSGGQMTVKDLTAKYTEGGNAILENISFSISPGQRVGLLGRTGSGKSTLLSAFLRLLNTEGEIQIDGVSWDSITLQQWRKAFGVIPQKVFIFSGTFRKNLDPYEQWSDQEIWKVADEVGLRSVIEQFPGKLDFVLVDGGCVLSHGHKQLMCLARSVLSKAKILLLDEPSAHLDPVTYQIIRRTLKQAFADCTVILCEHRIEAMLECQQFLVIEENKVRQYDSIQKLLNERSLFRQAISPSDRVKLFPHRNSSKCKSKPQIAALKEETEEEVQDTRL

In the case of `COc1ccc2c(c1)O[C@H](COC[C@H](O)CO)C[C@@H]2NC(=O)[C@@]1(C)COc2cc3c(cc21)OC(F)(F)O3` [Example 275, (7R)—N-[(2S,4S)-2-{[(2R)-2,3-dihydroxypropoxy]methyl}-7-methoxy-3,4-dihydro-2H-1-benzopyran-4-yl]-2,2-difluoro-7-methyl-6,7-dihydro-2H-furo[2,3-f][1,3]benzodioxole-7-carboxamide], the EC50 is over 20 µM and the “Maximum % activity (%)” value is reported as 7%.
Turning to `CC(C)(C)OC(=O)N[C@H]1CC[C@H]([C@@H]2C[C@H](NC(=O)[C@@]3(C)COc4cc5c(cc43)OC(F)(F)O5)c3ccc(OC(F)F)cc3O2)CC1` [Example 198, tert-butyl {trans-4-[(2S,4S)-7-(difluoromethoxy)-4-{[(7R)-2,2-difluoro-7-methyl-6,7-dihydro-2H-furo[2,3-f][1,3]benzodioxole-7-carbonyl]amino}-3,4-dihydro-2H-1-benzopyran-2-yl]cyclohexyl}carbamate], the half-maximal effective concentration (EC50) came to 1.07 µM and the “Maximum % activity (%)” value is 106%.
In the case of `CCOC(=O)C1(CN)CCC([C@H]2C[C@@H](NC(=O)[C@@]3(C)COc4cc5c(cc43)OC(F)(F)O5)c3ccc(OC(F)(F)F)cc3O2)CC1` (stereo partly drawn) [Example 287, ethyl 1-(aminomethyl)-4-[(2R,4R)-4-{[(7R)-2,2-difluoro-7-methyl-6,7-dihydro-2H-furo[2,3-f][1,3]benzodioxole-7-carbonyl]amino}-7-(trifluoromethoxy)-3,4-dihydro-2H-1-benzopyran-2-yl]cyclohexane-1-carboxylate], a half-maximal effect (EC50) was put at 0.64 µM and the “Maximum % activity (%)” value is given as 199%.
For `COc1cc2c(cc1Br)[C@H](NC(=O)[C@@]1(C)COc3cc4c(cc31)OC(F)(F)O4)C[C@H]([C@H]1CC[C@H](C(=O)O)CC1)O2` [Example 290, trans-4-[(2R,4R)-6-bromo-4-{[(7R)-2,2-difluoro-7-methyl-6,7-dihydro-2H-furo[2,3-f][1,3]benzodioxole-7-carbonyl]amino}-7-methoxy-3,4-dihydro-2H-1-benzopyran-2-yl]cyclohexane-1-carboxylic acid], in that order: 0.53 µM and 189%.
The like results for `CC1(C(=O)Nc2nc(-c3ccc(C#N)cc3)cs2)COc2cc3c(cc21)OC(F)(F)O3` (centres unmarked) [Example 63, N-[4-(4-cyanophenyl)-1,3-thiazol-2-yl]-2,2-difluoro-7-methyl-6,7-dihydro-2H-furo[2,3-f][1,3]benzodioxole-7-carboxamide] were, in that order, 8.64 µM and 41%.
For `C[C@]1(C(=O)Nc2cnc(N3CCC(C(=O)O)C3)cn2)COc2cc3c(cc21)OC(F)(F)O3` (stereo partly drawn) [Example 94, 1-(5-{[(7R)-2,2-difluoro-7-methyl-6,7-dihydro-2H-furo[2,3-f][1,3]benzodioxole-7-carbonyl]amino}pyrazin-2-yl)pyrrolidine-3-carboxylic acid], in that order: over 20 µM and 8%.
In the case of `COc1ccc2c(c1)O[C@@H](c1ccc(C(=O)O)cc1)C[C@H]2NC(=O)C1(C)COc2cc3c(cc21)OC(F)(F)O3` (stereo partly drawn) [Example 16, 4-{(2R,4R)-4-[(2,2-difluoro-7-methyl-6,7-dihydro-2H-furo[2,3-f][1,3]benzodioxole-7-carbonyl)amino]-7-methoxy-3,4-dihydro-2H-1-benzopyran-2-yl}benzoic acid], the EC50 stood at 0.06 µM and the “Maximum % activity (%)” value came out at 150%.
As to `CC(C)(C)OC(=O)CN1CCC([C@@H]2C[C@H](NC(=O)[C@@]3(C)COc4cc5c(cc43)OC(F)(F)O5)c3ccc(OC(F)(F)F)cc3O2)CC1` [Example 183, tert-butyl {4-[(2S,4S)-4-{[(7R)-2,2-difluoro-7-methyl-6,7-dihydro-2H-furo[2,3-f][1,3]benzodioxole-7-carbonyl]amino}-7-(trifluoromethoxy)-3,4-dihydro-2H-1-benzopyran-2-yl]piperidin-1-yl}acetate], the EC50 stood at 2.22 µM and the “Maximum % activity (%)” value is 60%.
With `CC1CN(c2cccc(NC(=O)[C@@]3(C)COc4cc5c(cc43)OC(F)(F)O5)n2)CC1C(=O)O` (stereo partly drawn) [Example 116, 1-(6-{[(7R)-2,2-difluoro-7-methyl-6,7-dihydro-2H-furo[2,3-f][1,3]benzodioxole-7-carbonyl]amino}pyridin-2-yl)-4-methylpyrrolidine-3-carboxylic acid], a half-maximal effect (EC50) was put at 1.1 µM and the “Maximum % activity (%)” value is 136%.
For the compound `CC1(C(=O)Nc2nc(-c3ccc(C(=O)O)cc3)cs2)COc2cc3c(cc21)OC(F)(F)O3` (centres unmarked) [Example 68, 4-{2-[(2,2-difluoro-7-methyl-6,7-dihydro-2H-furo[2,3-f][1,3]benzodioxole-7-carbonyl)amino]-1,3-thiazol-4-yl}benzoic acid], a half-maximal effect (EC50) was put at 4.47 µM and the “Maximum % activity (%)” value was determined as 44%.
For `CCOC(=O)[C@H]1CC[C@H]([C@H]2C[C@@H](NC(=O)[C@@]3(C)COc4cc5c(cc43)OC(F)(F)O5)c3ccc(OC)cc3O2)CC1` [Example 153, ethyl trans-4-[(2R,4R)-4-{[(7R)-2,2-difluoro-7-methyl-6,7-dihydro-2H-furo[2,3-f][1,3]benzodioxole-7-carbonyl]amino}-7-methoxy-3,4-dihydro-2H-1-benzopyran-2-yl]cyclohexane-1-carboxylate], in that order: 0.304 µM and 135%.
The like results for `COc1ccc2c(c1)O[C@@H](c1cccc(C(=O)O)c1)C[C@H]2NC(=O)[C@@]1(C)CCc2cc3c(cc21)OC(F)(F)O3` (single isomer, unassigned) [Example 57] were, in that order, 1.77 µM and 99%.
For `CC(C)(COCc1ccccc1)c1cc2cc(NC(=O)[C@@]3(C)COc4cc5c(cc43)OC(F)(F)O5)c(F)cc2[nH]1` [Example 204, (7R)—N-{2-[1-(benzyloxy)-2-methylpropan-2-yl]-6-fluoro-1H-indol-5-yl}-2,2-difluoro-7-methyl-6,7-dihydro-2H-furo[2,3-f][1,3]benzodioxole-7-carboxamide], in that order: 0.31 µM and 134%.
`CC1(C(=O)Nc2cccc(N3CC[C@@H](C(=O)O)C3)n2)COc2cc3c(cc21)OC(F)(F)O3` (stereo partly drawn) [Example 8, (3R)-1-{6-[(2,2-difluoro-7-methyl-6,7-dihydro-2H-furo[2,3-f][1,3]benzodioxole-7-carbonyl)amino]pyridin-2-yl}pyrrolidine-3-carboxylic acid]: the EC50 came out at 1.47 µM and the “Maximum % activity (%)” value turned out to be 126%.
`CCOC(=O)C1([C@H]2C[C@@H](NC(=O)[C@@]3(C)COc4cc5c(cc43)OC(F)(F)O5)c3ccc(OC(F)(F)F)cc3O2)CC1` [Example 164, ethyl 1-[(2R,4R)-4-{[(7R)-2,2-difluoro-7-methyl-6,7-dihydro-2H-furo[2,3-f][1,3]benzodioxole-7-carbonyl]amino}-7-(trifluoromethoxy)-3,4-dihydro-2H-1-benzopyran-2-yl]cyclopropane-1-carboxylate]: the concentration giving a half-maximal response (EC50) came to 0.106 µM and the “Maximum % activity (%)” value came to 122%.
The like results for `CCOC(=O)C1([C@@H]2C[C@H](NC(=O)[C@@]3(C)COc4cc5c(cc43)OC(F)(F)O5)c3ccc(OC(F)(F)F)cc3O2)CC1` [Example 165, ethyl 1-[(2S,4S)-4-{[(7R)-2,2-difluoro-7-methyl-6,7-dihydro-2H-furo[2,3-f][1,3]benzodioxole-7-carbonyl]amino}-7-(trifluoromethoxy)-3,4-dihydro-2H-1-benzopyran-2-yl]cyclopropane-1-carboxylate] were, in that order, 2.64 µM and 85%.
